pIC50: −log10 of the molar value. Read-outs that look alike come from different tables or passages of the source.
How the values were obtained:
IL-1β = assay: Diabetic rat model, 3-week oral treatment: gingival IL-1β by ELISA; type: in vivo; conditions: 3 weeks
Experimental: (§1) At the end of the treatment protocol, the rats were sacrificed, blood samples were collected, and whole skin (except over limbs) and gingiva were dissected (the skin, because of ample quantities of tissue were analyzed for each rat separately; the gingiva, because of the tiny amounts that could be harvested per rat, were pooled for each experimental group, as prescribed previously for tetracycline studies (30). In addition, the jaw bones were collected, defleshed, and bone loss around the teeth analyzed morphometrically as described previously (42, 43).

[1] = tested on: neonatal rat ventricular myocytes; assay: Hydrogen peroxide induced LDH release; type: cell-based; conditions: 10 μM, H2O2 100 μM
Experimental: (§2) Test compounds and concentrations (MMP inhibitors, MMPi): • 1. GM-6001: 10 μM • 2. ONO-4817: 10 μM • 3.
Neonatal rat ventricular myocytes, serum starved for 24 h, were treated with the inhibitors 1 h prior to the addition of 100 μM of hydrogen peroxide (Sigma). LDH release in the conditioned media was quantified using CytoTox-ONE Homogeneous Membrane Integrity Assay reagent (Promega) at the indicated time points.

purified human PMN MMP-8 = purified human PMN MMP-8 (Homo sapiens (Human), UniProt P22894); assay: MMP-8 inhibition, synthetic octapeptide substrate, tripeptide product by HPLC; type: biochemical
Chain of purified human PMN MMP-8 (P22894 101-467): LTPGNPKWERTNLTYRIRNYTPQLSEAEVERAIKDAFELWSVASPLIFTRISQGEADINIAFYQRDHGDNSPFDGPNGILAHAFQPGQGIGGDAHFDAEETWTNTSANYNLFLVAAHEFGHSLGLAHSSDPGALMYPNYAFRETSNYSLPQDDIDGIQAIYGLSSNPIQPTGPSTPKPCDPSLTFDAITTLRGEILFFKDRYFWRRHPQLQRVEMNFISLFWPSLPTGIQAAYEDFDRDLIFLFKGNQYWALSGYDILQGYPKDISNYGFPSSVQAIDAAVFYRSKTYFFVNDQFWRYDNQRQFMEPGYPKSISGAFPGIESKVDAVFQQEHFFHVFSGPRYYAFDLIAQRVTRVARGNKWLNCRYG

diabetic rats = assay: Diabetic rat model, 1-week oral treatment: diabetic adverse events; type: in vivo; conditions: 100 mg/kg oral once/day for 7 days, n = 6
[2] = Extractability/recovery from human serum by HPLC; conditions: human
Experimental: Detection of compounds & extractability/recovery from human serum (for future use to determine in vivo pharmacokinetics) was achieved using HPLC. The HPLC detection method is briefly described herein. 50 μl of buffer or human serum containing 166.67 μM, 16.67 μM and 1.67 μM of the compounds were incubated with 100 μl pre-cooled (−10° C.) extraction solvent containing CAN-MeOH-0.5M oxalic acid at a ratio of 60:30:10. The mixture was vortexed and centrifuged at 10,000 rpm for 10 min. The supernatant was then aliquoted and injected into an HPLC for analysis. Stock solutions of the compounds were made 100× in DMSO, then further diluted with buffer or serum.

[3] = Diabetic rat model, 1-week oral treatment: serum glucose; type: in vivo; conditions: diabetic rats, 100 mg/kg oral once/day for 7 days
Text: The purpose of the following was to establish an in vivo model of excessive collagen degradation to be used to test efficacy of the compounds of the subject invention. Male Sprague-Dawley rats (typically 300-400 gms of body weight), specific viral antibody free, were ordered from Charles River. Following general anesthesia via isoflurane anesthetic inhalation, diabetes was induced by an I.V. administration of streptozotocin (STZ) (50* mg/kg body weight) (Sigma Chemical Co., St Louis, Mo., USA) diluted in 0.9% citrated saline (pH 4.5), after 12 hours of fasting. After the streptozotocin injection, the animals were given free access to water and food. […] In this test, the test-paper color changes to dark brown which indicates glycosuria.
The latter assays were carried out using Western blot analysis with monoclonal antibodies to MMP-8.

[4] = molecular target: MMP-2 (72 kDa gelatinase) (Rattus norvegicus (Rat), UniProt P33436); assay: Diabetic rat model, 1-week oral treatment: plasma MMP-2 by gelatin zymography; type: in vivo; conditions: diabetic rats, 100 mg/kg oral once/day for 7 days
[5] = molecular target: MMP-9 generated by PC-3 human prostate cancer cells (Homo sapiens (Human), UniProt P14780); assay: MMP-9 in conditioned media of PC-3 cells, gelatin zymography and Western blot; type: cell-based; conditions: 10 μM and 20 μM, 48 hr, serum-free media
Experimental: Compound 1 was evaluated in a cell culture model of cancer. […] After the incubation, aliquots of the conditioned media were assayed for MMP-9 (gelatinase B) by either of two techniques, gelatin zymography (in the presence of 2 or 10 mMCa^++) and Western blot (both assays used purified MMP-9, 92 kDa gelatinase, as a standard).

[6] = molecular target: chromatographically-purified MMP-2 (Homo sapiens (Human), UniProt P08253); assay: MMP-2 inhibition in vitro, octapeptide/HPLC; type: biochemical
Chain of chromatographically-purified MMP-2 (P08253 110-660): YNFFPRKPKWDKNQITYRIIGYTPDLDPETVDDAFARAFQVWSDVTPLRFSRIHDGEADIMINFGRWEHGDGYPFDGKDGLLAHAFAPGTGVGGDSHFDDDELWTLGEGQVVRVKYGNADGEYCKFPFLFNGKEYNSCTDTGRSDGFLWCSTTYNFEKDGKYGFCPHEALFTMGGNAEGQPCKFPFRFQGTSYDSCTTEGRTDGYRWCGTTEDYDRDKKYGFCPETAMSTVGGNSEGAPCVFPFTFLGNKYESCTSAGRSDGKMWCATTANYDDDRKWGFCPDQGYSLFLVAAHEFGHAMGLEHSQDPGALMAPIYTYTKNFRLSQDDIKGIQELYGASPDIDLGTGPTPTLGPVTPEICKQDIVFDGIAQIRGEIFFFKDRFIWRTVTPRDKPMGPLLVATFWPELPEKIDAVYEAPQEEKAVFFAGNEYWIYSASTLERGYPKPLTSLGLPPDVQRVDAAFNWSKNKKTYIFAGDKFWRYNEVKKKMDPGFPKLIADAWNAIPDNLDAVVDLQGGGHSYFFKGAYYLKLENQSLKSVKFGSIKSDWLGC

[7] = tested on: alveolar (periodontal) bone loss in diabetic rats; assay: Diabetic rat model, 3-week oral treatment: alveolar bone loss, morphometric; type: in vivo; conditions: 3 weeks
Experimental: as §1
Alveolar bone loss (the signature pathologic event in inflammatory periodontal disease) was assessed in the defleshed jaws of the compound 1-treated (TX) and untreated rats.

[8] = Diabetic rat model, 3-week oral treatment: blood glucose and hemoglobin A1c; type: in vivo; conditions: diabetic rats, 100 mg/kg and 500 mg/kg oral daily, 3 weeks
Experimental: as §1

[9] = tested on: caspase-3 activity in neonatal rat ventricular myocytes; assay: Doxorubicin mediated caspase-3 activity; type: cell-based; conditions: 10 μM, doxorubicin 500 nM, 6 h and 24 h
Experimental: as §2
Neonatal rat ventricular myocytes, serum starved for 24 h, were treated with the inhibitors 1 h prior to the addition of 500 nM of doxorubicin (Sigma). At the indicated time points cells were washed with ice-cold phosphate buffered saline and lysed using RIPA buffer (Pierce) containing protease and phosphatase inhibitors (Sigma). Caspase-3 activity in the cell lysates was measured by incubation with 7-amino-4-trifluoromethyl coumarin (Enzo).

MMP-2 (gelatinase A) = MMP-2 (gelatinase A) (Rattus norvegicus (Rat), UniProt P33436); assay: Diabetic rat model, 3-week oral treatment: gingival MMP-2 by gelatin zymography; type: in vivo; conditions: diabetic rats, oral daily, 3 weeks
Experimental: as §1
(§3) This appearance of MMP-9 only in the gingiva (FIG. 10), but not the skin (FIG. 12), of the diabetic rats is likely the result of the oral bacteria inducing inflammation in the gingiva of these immune-suppressed UD rats, whereas the skin is not exposed to this onslaught of bacteria particularly the anaerobic gram-negative bacteria in the mouth that cause periodontal and gingival inflammation.

human monocytes [10] = assay: Cytotoxicity in human monocytes (MTS); type: cell-based
Experimental: Briefly, human peripheral blood monocytes (HMs) were isolated from a leukocyte concentrate by density gradient centrifugation (Lymphoprep) and the isolated HMs cultured (2 h, 37° C.) to remove non-adherent cells. The adherent HMs were cultured for 18 h (1×10^6 cells/well, 24-well plates)±endotoxin (LPS)±different compounds dissolved in DMSO (the final concentration of DMSO in the RPMI serum-free culture media with Pen./Strep. antibiotics was no greater than 0.5%). After incubation, the proinflammatory cytokines, TNFα, IL-1β, MCP-1 and IL-6 were measured in the conditioned media by ELISA and cytotoxicity was assessed by measuring the absorbance (490 nm) of formazan produced by reduction of MTS. The HMs alone ±0.1-0.5% DMSO produced minimal levels of these pro-inflammatory cytokines. However, addition of 100 ng/ml or 10 μg/ml of LPS both dramatically stimulated cytokine production.

MMP-2 = MMP-2 (Rattus norvegicus (Rat), UniProt P33436); assay: Diabetic rat model, 3-week oral treatment: skin MMP-2 by ELISA; type: in vivo; conditions: both low and high doses, 3 weeks
Experimental: as §1

[11] = Solubility in aqueous solutions; type: physicochemical
p38 MAP kinase = p38 MAP kinase activation; type: cell-based, human; conditions: preliminary studies
[12] = molecular target: T1, MMP-9 (92 kDa gelatinase) (Rattus norvegicus (Rat), UniProt P50282); assay: Diabetic rat model, 1-week oral treatment: plasma MMP-9 by gelatin zymography; type: in vivo; conditions: diabetic rats, 100 mg/kg oral once/day for 7 days
human monocytes [13] = assay: Cytotoxicity in human monocytes (MTS); type: cell-based; remark: listed apart in the source
[14] = molecular target: MMP-9 (human leukocyte gelatinase) (Homo sapiens (Human), UniProt P14780); assay: MMP-9 inhibition in vitro, octapeptide/HPLC; type: biochemical
Chain of MMP-9 (human leukocyte gelatinase) (P14780 94-707): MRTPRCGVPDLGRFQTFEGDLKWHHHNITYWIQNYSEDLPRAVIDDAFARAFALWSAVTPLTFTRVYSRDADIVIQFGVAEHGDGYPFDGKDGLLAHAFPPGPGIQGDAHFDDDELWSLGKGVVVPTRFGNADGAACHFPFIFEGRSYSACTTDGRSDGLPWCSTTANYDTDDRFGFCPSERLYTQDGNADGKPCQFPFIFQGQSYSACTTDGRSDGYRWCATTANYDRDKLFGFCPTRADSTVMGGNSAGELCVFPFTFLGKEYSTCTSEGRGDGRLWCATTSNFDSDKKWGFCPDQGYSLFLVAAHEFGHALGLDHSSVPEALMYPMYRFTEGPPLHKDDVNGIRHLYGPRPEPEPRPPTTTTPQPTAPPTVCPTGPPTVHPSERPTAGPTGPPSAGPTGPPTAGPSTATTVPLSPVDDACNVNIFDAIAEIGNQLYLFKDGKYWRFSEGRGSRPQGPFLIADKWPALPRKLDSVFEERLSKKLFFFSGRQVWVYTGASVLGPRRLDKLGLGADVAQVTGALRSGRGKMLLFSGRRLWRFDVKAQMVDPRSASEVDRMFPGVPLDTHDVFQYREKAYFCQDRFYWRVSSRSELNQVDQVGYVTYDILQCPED
Text: In contrast all three chemically-modified curcumins at 100 μm final concentration inhibited gelatinase activity by 68-100% (FIG. 6 and Table 6).

MCP-1, TNFα, VEGF = assay: Cytokine and growth factor levels in LPS-challenged human monocytes, Luminex multiplex; type: cell-based; conditions: 2 μM, FIG. 2
Experimental: The cytokine levels were measured by Luminex multiplex, a method that allows the simultaneous measurement of different biological markers.

[15] = molecular target: T1, MMP-9 (92 kDa gelatinase); assay: Diabetic rat model, 3-week oral treatment: gingival MMP-9 by gelatin zymography; type: in vivo; conditions: diabetic rats, 100 mg/kg and 500 mg/kg oral daily, 3 weeks
Experimental: as §1, §3

For `COC(=O)C(C(=O)/C=C/c1ccc(O)c(OC)c1)C(=O)/C=C/c1ccc(O)c(OC)c1` [Compound 1, 1,7-Bis(4-hydroxy-3-methoxyphenyl)-4-methoxycarbonylhepta-1E,6E-dien-3,5-dione], the “Reduction of IL-1β in gingiva vs untreated diabetic” value (IL-1β; higher oral dose (500 mg/kg)) was 95%, the “Reduction of IL-1β in gingiva vs untreated diabetic” value (IL-1β; lower oral dose (100 mg/kg)) was “about 18%” and the LDH release ([1]; 6 h) was 24286±930. For the same molecule, the “Effect on LDH release” value ([1]; 24 h) was “less dramatic effect”, the pIC50 (purified human PMN MMP-8; Example 7 experiment, 1 mM Ca++, 37° C., read-out: IC50, human neutrophil collagenase (MMP-8)) was 5.00 and the “IC50 against purified hMMP-8” value (purified human PMN MMP-8; Table 1 experiments) was “equivalent to that of 1,10-O-phenanthroline”. The pIC50 (purified human PMN MMP-8; Table 1 experiments, read-out: IC50 against purified hMMP-8) was 4.46, the “Description of AEs” value (diabetic rats) was “Minor inflamed sclera” and the “Incidence of Adverse Events (AEs)” value (diabetic rats) was 1/6. For the same molecule, the “Recovery from human serum” value [2] was 76-80%, the “Effect on severity of hyperglycemia (serum glucose)” value [3] was “no effect on the severity of hyperglycemia” and the “Plasma MMP-2 level” value [4] was “reduced the excessive levels of MMPs to essentially normal levels”. For the same molecule, the “Production and/or activity of MMP-9” value [5] was “inhibited the production and/or activity of MMP-9”, the “Maximum Inhibition @ 100 μM, MMP-2” value ([6]; 100 μM) was 78% and the pIC50 ([6]; read-out: IC50 MMP-2) was 4.32. The “Reduction in alveolar bone loss vs untreated groups” value ([7]; 100 mg/kg oral, p<0.05) was about 60%, the “Reduction in alveolar bone loss vs untreated groups” value ([7]; 500 mg/kg oral) was “less effective” and the “Effect on blood glucose and hemoglobin A1c levels” value [8] was “no significant effect”. For the same molecule, the “Effect on caspase-3 activity mediated by doxorubicin” value [9] was “None of the MMP inhibitors, including compound 1, negatively modulate caspase-3 activity”, the “Pro- and activated-forms of MMP-2 in gingiva” value (MMP-2 (gelatinase A)) was “neither diabetes nor compound 1 appeared to have a detectable effect” and the “Cytotoxicity Monocytes @ 18 h incubation” value (human monocytes [10]; 25 uM) was 25 uM- 45.5%. For the same molecule, the “Cytotoxicity Monocytes @ 18 h incubation” value (human monocytes [10]; 50 uM) was 50 uM- 53%, the “Reduction of elevated MMP-2 level in skin (ELISA)” value (MMP-2) was 28% and the “Solubility in aqueous solutions (comparative)” value [11] was “more soluble than the insoluble natural product curcumin”. For the same molecule, the “Effect on p38 MAP kinase activation” value (p38 MAP kinase) was “little/no effect”, the “Plasma MMP-9 level” value [12] was “reduced the excessive levels of MMPs to essentially normal levels” and the “Cytotoxicity Monocytes @ 5 h incubation” value (human monocytes [13]; 2 uM) was 2 uM- 0%. The “Cytotoxicity Monocytes @ 5 h incubation” value (human monocytes [13]; 10 uM) was 10 uM- 0%, the “Cytotoxicity Monocytes @ 5 h incubation” value (human monocytes [13]; 25 uM) was 25 uM- 33% and the IC50 [14] was 16 µM. For the same molecule, the “Reduction of proinflammatory cytokines and growth factors (MCP-1, TNFα, VEGF)” value (MCP-1, TNFα, VEGF) was “potent in reducing proinflammatory cytokines such as MCP-1 and TNFα and growth factors such as VEGF” and the “MMP-9 level in gingiva” value [15] was “reduced MMP-9 to the undetectable levels”.
